Target: T1, NAD-dependent protein deacetylase sirtuin-2 (Homo sapiens, UniProt Q8IXJ6)
T1 sequence (Q8IXJ6 whole entry): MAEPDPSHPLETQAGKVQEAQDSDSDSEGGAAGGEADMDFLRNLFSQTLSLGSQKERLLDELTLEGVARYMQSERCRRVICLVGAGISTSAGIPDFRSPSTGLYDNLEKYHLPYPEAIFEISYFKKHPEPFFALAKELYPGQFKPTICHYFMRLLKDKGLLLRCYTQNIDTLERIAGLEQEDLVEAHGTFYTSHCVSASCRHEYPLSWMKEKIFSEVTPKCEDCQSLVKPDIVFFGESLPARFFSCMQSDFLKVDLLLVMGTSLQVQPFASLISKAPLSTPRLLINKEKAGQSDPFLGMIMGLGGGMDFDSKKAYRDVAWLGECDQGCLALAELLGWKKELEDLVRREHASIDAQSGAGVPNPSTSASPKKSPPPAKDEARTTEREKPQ
Test: Inhibition of human recombinant Sirt2 using ZMAL as substrate after 4 hrs by fluorescent deacetylase assay

| Compound | IC50 (read-out: IC50) | IC50 (read-out: pIC50 (converted)) |
| --- | --- | --- |
| O=C1NC(=S)NC(=O)C1=Cc1ccc(-c2ccc(Cl)cc2)o1 | 6.5 µM | 2.19 µM |
| O=C1NC(=S)NC(=O)C1=Cc1ccc(-c2ccc(Cl)c(Cl)c2)o1 | 1.5 µM |  |
| C=CCN1C(=O)/C(=C/c2ccc(-c3cccc(Cl)c3Cl)o2)C(=O)NC1=S | 2.8 µM |  |
| CC(C)Oc1ccc(C=C2C(=O)NC(=S)NC2=O)cc1 | 5.8 µM |  |
| COc1ccc(CC2C(=O)NC(=S)NC2=O)cc1OCc1ccccc1 | 5.8 µM |  |
| CCOc1ccc(C=C2C(=O)NC(=S)NC2=O)cc1CCc1ccccc1 | 4.9 µM |  |
| O=C1NC(=S)NC(=O)C1=Cc1cc(OCc2ccc(Br)cc2)ccc1Cl | 1.8 µM |  |
| O=C1NC(=S)NC(=O)C1=Cc1ccc(OCc2ccccc2)c(OCc2ccccc2)c1 | 3.9 µM |  |
| O=C1NC(=S)NC(=O)C1=Cc1ccc(OCc2cccc3ccccc23)cc1 | 2.6 µM |  |
| CC(=O)c1ccc(-c2ccc(C=C3C(=O)NC(=S)NC3=O)o2)cc1 | 5.5 µM |  |
| O=C1NC(=S)NC(=O)C1=Cc1ccc(-c2ccc(C(=O)OCc3cccc(Cl)c3)cc2)o1 | 2.2 µM | 6.46 µM |
| O=C1NC(=S)NC(=O)C1=Cc1cn(-c2ccccc2)nc1-c1ccc(Cl)cc1 | 3.8 µM |  |
| O=C1NC(=S)NC(=O)C1=Cc1ccc(Sc2ccccc2)o1 | 3.5 µM |  |
| COC(=O)c1ccc(-c2ccc(C=C3C(=O)NC(=S)NC3=O)o2)cc1 | 5.7 µM |  |
